Assay results as given in ChEMBL document CHEMBL3352801, “Synthesis and lipid-lowering evaluation of 3-methyl-1H-purine-2,6-dione derivatives as potent and orally available anti-obesity agents” (Eur J Med Chem, 2014).
≈ marks a conversion by molar mass, not a printed value.

Assays:
[1] = test system: Mus musculus; assay: Toxicity in diet-induced obese C57Bl/6 mouse assessed as change in food intake at 150 mg/kg/day, po for 4 weeks administered with high-fat diet; format: organism-based; set-up: route oral; conditions: in vivo, 672 h
[2] = test system: Mus musculus; assay: Toxicity in diet-induced obese C57Bl/6 mouse assessed as change in ALT level at 150 mg/kg/day, po for 4 weeks administered with high-fat diet (reference value: 33.00 +/- 18.23 U/L); format: organism-based; set-up: route oral; conditions: in vivo, 672 h
[3] = test system: Mus musculus; assay: Toxicity in diet-induced obese C57Bl/6 mouse assessed as change in AST level at 150 mg/kg/day, po for 4 weeks administered with high-fat diet (reference value: 125.00 +/- 35.00 U/L); format: organism-based; set-up: route oral; conditions: in vivo, 672 h
[4] = test system: Mus musculus; assay: Toxicity in diet-induced obese C57Bl/6 mouse assessed as change in ALT level at 150 mg/kg/day, po for 4 weeks administered with high-fat diet (reference value: 29.6 +/- 8.29 U/L); format: organism-based; set-up: route oral; conditions: in vivo, 672 h
[5] = test system: Mus musculus; assay: Toxicity in diet-induced obese C57Bl/6 mouse assessed as change in AST level at 150 mg/kg/day, po for 4 weeks administered with high-fat diet (reference value: 128.00 +/- 20.59 U/L); format: organism-based; set-up: route oral; conditions: in vivo, 672 h
[6] = test system: 3T3-L1; assay: Inhibition of triglyceride accumulation in mouse 3T3L1 cells at 10 uM after 24 hrs; format: functional; conditions: 3T3-L1, 24 h
[7] = test system: Rattus norvegicus; assay: Acute toxicity in Sprague-Dawley rat assessed as clinical signs at 2.5 g/kg, po as single dose measured after 7 days; format: organism-based; conditions: in vivo, 2500 mg/kg, 168 h
[8] = test system: Rattus norvegicus; assay: Acute toxicity in Sprague-Dawley rat assessed as change in body weight at 2.5 g/kg, po as single dose measured after 7 days; format: organism-based; conditions: in vivo, 2500 mg/kg, 168 h
[9] = test system: Rattus norvegicus; assay: Acute toxicity in Sprague-Dawley rat assessed as mortality at 2.5 g/kg, po as single dose measured after 7 days; format: organism-based; conditions: in vivo, 2500 mg/kg, 168 h
[10] = test system: Mus musculus; assay: Antiobesity activity in diet-induced obese C57Bl/6 mouse assessed as reduction in body weight at 50 mg/kg/day, po for 4 weeks administered with high-fat diet; format: functional; set-up: scale not given: the % may be the effect or the level left
[11] = test system: Mus musculus; assay: Toxicity in diet-induced obese C57Bl/6 mouse assessed as change in food intake at 50 mg/kg/day, po for 4 weeks administered with high-fat diet; format: organism-based; set-up: route oral; conditions: in vivo, 672 h
[12] = test system: Mus musculus; assay: Antiobesity activity in diet-induced obese C57Bl/6 mouse assessed as loss of liver weight at 50 mg/kg/day, po for 4 weeks administered with high-fat diet; format: functional
[13] = test system: Mus musculus; assay: Antiobesity activity in diet-induced obese C57Bl/6 mouse assessed as loss of epididymal fat mass at 50 mg/kg/day, po for 4 weeks administered with high-fat diet; format: functional
[14] = test system: Mus musculus; assay: Increase in glucose tolerance in diet-induced obese C57Bl/6 mouse assessed as time required for reducing plasma glucose to initial state at 50 mg/kg/day, po for 4 weeks by oral glucose tolerance test; format: functional
[15] = test system: Mus musculus; assay: Increase in glucose tolerance in diet-induced obese C57Bl/6 mouse assessed as rate of reducing plasma glucose at 50 mg/kg/day, po for 4 weeks by oral glucose tolerance test; format: functional
[16] = test system: Mus musculus; assay: Antiobesity activity in diet-induced obese C57Bl/6 mouse assessed as reduction in fasting blood glucose at 50 mg/kg/day, po for 4 weeks administered with high-fat diet (reference value: 5.0 +/- 1.30 mM); format: functional
[17] = test system: Mus musculus; assay: Antiobesity activity in diet-induced obese C57Bl/6 mouse assessed as change in insulin level at 50 mg/kg/day, po for 4 weeks administered with high-fat diet (reference value: 11.85 +/- 2.6 mU); format: functional
[18] = test system: Mus musculus; assay: Toxicity in diet-induced obese C57Bl/6 mouse assessed as change in ALT level at 50 mg/kg/day, po for 4 weeks administered with high-fat diet (reference value: 33.00 +/- 18.23 U/L); format: organism-based; set-up: route oral; conditions: in vivo, 672 h
[19] = test system: Mus musculus; assay: Toxicity in diet-induced obese C57Bl/6 mouse assessed as change in AST level at 50 mg/kg/day, po for 4 weeks administered with high-fat diet (reference value: 125.00 +/- 35.00 U/L); format: organism-based; set-up: route oral; conditions: in vivo, 672 h
[20] = test system: Mus musculus; assay: Antiobesity activity in diet-induced obese C57Bl/6 mouse assessed as reduction in triglyceride level at 50 mg/kg/day, po for 4 weeks administered with high-fat diet (reference value: 0.93 +/- 0.09 mM); format: functional
[21] = test system: Mus musculus; assay: Antiobesity activity in diet-induced obese C57Bl/6 mouse assessed as reduction in LDL level at 50 mg/kg/day, po for 4 weeks administered with high-fat diet (reference value: 0.14 +/- 0.07 mM); format: functional
[22] = test system: Mus musculus; assay: Antiobesity activity in diet-induced obese C57Bl/6 mouse assessed as increase in HDL level at 50 mg/kg/day, po for 4 weeks administered with high-fat diet (reference value: 0.60 +/- 0.17 mM); format: functional
[23] = test system: Mus musculus; assay: Antiobesity activity in diet-induced obese C57Bl/6 mouse assessed as reduction in FFA level at 50 mg/kg/day, po for 4 weeks administered with high-fat diet (reference value: 19.55 +/- 1.57 ng/L); format: functional
[24] = test system: Mus musculus; assay: Antiobesity activity in diet-induced obese C57Bl/6 mouse assessed as reduction in HOMA-IR value at 50 mg/kg/day, po for 4 weeks administered with high-fat diet (reference value: 3.06 +/- 0.85 no_unit); format: functional
[25] = test system: Mus musculus; assay: Antiobesity activity in diet-induced obese C57Bl/6 mouse assessed as reduction in hepatic triglyceride level at 50 mg/kg/day, po for 4 weeks administered with high-fat diet by Oil Red O staining-based histological method; format: functional; set-up: scale not given: the % may be the effect or the level left
[26] = Cmax in Sprague-Dawley rat at 5 mg/kg, iv; format: ADME, organism-based; set-up: dose 5 mg/kg, route intravenous; conditions: in vivo
[27] = Tmax in Sprague-Dawley rat at 5 mg/kg, iv; format: ADME, organism-based; set-up: dose 5 mg/kg, route intravenous; conditions: in vivo
[28] = Half life in Sprague-Dawley rat at 5 mg/kg, iv; format: ADME, organism-based; set-up: dose 5 mg/kg, route intravenous; conditions: in vivo
[29] = AUC (0 to t) in Sprague-Dawley rat at 5 mg/kg, iv; format: ADME, organism-based; set-up: dose 5 mg/kg, route intravenous; conditions: plasma
[30] = Volume of distribution in Sprague-Dawley rat at 5 mg/kg, iv; format: ADME, organism-based; set-up: dose 5 mg/kg, route intravenous; conditions: in vivo
[31] = Total clearance in Sprague-Dawley rat at 5 mg/kg, iv; format: ADME, organism-based; set-up: dose 5 mg/kg, route intravenous; conditions: in vivo
[32] = Cmax in Sprague-Dawley rat at 20 mg/kg, po; format: ADME, organism-based; set-up: dose 20 mg/kg, route oral; conditions: in vivo
[33] = Tmax in Sprague-Dawley rat at 20 mg/kg, po; format: ADME, organism-based; set-up: dose 20 mg/kg, route oral; conditions: in vivo
[34] = Half life in Sprague-Dawley rat at 20 mg/kg, po; format: ADME, organism-based; set-up: dose 20 mg/kg, route oral; conditions: in vivo
[35] = AUC (0 to t) in Sprague-Dawley rat at 20 mg/kg, po; format: ADME, organism-based; set-up: dose 20 mg/kg, route oral; conditions: plasma
[36] = test system: Rattus norvegicus; assay: Volume of distribution in Sprague-Dawley rat at 20 mg/kg, po; format: ADME, organism-based; set-up: dose 20 mg/kg, route oral; conditions: in vivo
[37] = Total clearance in Sprague-Dawley rat at 20 mg/kg, po; format: ADME, organism-based; set-up: dose 20 mg/kg, route oral; conditions: in vivo
[38] = Oral bioavailability in Sprague-Dawley rat at 20 mg/kg; format: ADME, organism-based; conditions: in vivo
[39] = Solubility of the compound at room temperature; format: physicochemical

CN(C)C(=N)N=C(N)N [METFORMIN]
Activity [1]: Non-toxic | Activity [2]: 21.67 U/L | Activity [3]: 110 U/L | Activity [4]: 46.29 U/L | Activity [5]: 172 U/L

CCn1c(-c2ccc(OCCN(C)c3ccccn3)cc2)nc2c1c(=O)n(Cc1ccccc1C#N)c(=O)n2C
inhibition at 10 µM [6]: 64.5% | Activity [7]: Non-toxic | Activity [8]: Non-toxic | Activity [9]: Non-toxic | Activity [10]: 15.96% | Activity [11]: Non-toxic | Activity [12]: 16.8% | Activity [13]: 21.65% | Time [14]: >40 min | Activity [15]: >2 %/min | Activity [16]: 5.15 mM | Activity [17]: 13.35 mU | Activity [18]: 20 U/L | Activity [19]: 120 U/L | Activity [20]: 1.02 mM | Activity [21]: 0.11 mM | Activity [22]: 1.96 mM | Activity [23]: 22.67 ng/L | Activity [24]: 3.06 | Activity [25]: 7.17% | Cmax [26]: 342 ng/mL | Tmax [27]: 4.98 min | half-life [28]: 8.83 h | AUC(0-t) [29]: 404 ng·h/mL | Vd [30]: 142 L/kg | clearance [31]: 189 mL/min/kg | Cmax [32]: 54.4 ng/mL | Tmax [33]: 2.27 h | half-life [34]: 6.3 h | AUC(0-t) [35]: 453 ng·h/mL | Vd [36]: 416.501 L/kg | CL/F [37]: 1030 mL/min/kg | bioavailability [38]: 28% | solubility [39]: 1000 µg/mL (≈ 1870 µM)
